Assay results published in ChEMBL document CHEMBL2440068, “Synthesis and evaluation of N-alkyl-S-[3-(piperidin-1-yl)propyl]isothioureas: high affinity and human/rat species-selective histamine H(3) receptor antagonists” (Bioorg Med Chem Lett, 2013).
The source made the active and inactive calls. The rule behind the calls is not given here.

What was measured:
[1] = biological target: Histamine H4 receptor (Homo sapiens) (UniProt Q9H3N8); assay: Antagonist activity at human histamine H4 receptor expressed in CHO cells assessed inhibition of forskolin/histamine-induced cAMP accumulation at 1 uM after 1.5 hrs by TR-FRET immunoassay; assay type: functional, cell-based
[2] = biological target: Histamine H4 receptor (Homo sapiens) (UniProt Q9H3N8); assay: Agonist activity at human histamine H4 receptor expressed in CHO cells assessed increase of forskolin-induced cAMP accumulation at 1 uM after 1.5 hrs by TR-FRET immunoassay; assay type: functional, cell-based
Histamine H3 receptor = Histamine H3 receptor (Homo sapiens, UniProt Q9Y5N1); assay: Antagonist activity at human histamine H3 receptor expressed in CHO cells assessed as inhibition of forskolin/R-alpha-methylhistamine-induced cAMP accumulation after 1.5 hrs by TR-FRET immunoassay; assay type: functional, cell-based; settings: for Kb: read-out: pA2 (converted)
Rattus norvegicus = assay: Increase of histamine release in Wistar rat hypothalamus at 10 uM administered through dialysis membrane by HPLC-fluorometric based microdialysis relative to control; assay type: functional

Histamine H3 receptor, sequence (Q9Y5N1 whole entry): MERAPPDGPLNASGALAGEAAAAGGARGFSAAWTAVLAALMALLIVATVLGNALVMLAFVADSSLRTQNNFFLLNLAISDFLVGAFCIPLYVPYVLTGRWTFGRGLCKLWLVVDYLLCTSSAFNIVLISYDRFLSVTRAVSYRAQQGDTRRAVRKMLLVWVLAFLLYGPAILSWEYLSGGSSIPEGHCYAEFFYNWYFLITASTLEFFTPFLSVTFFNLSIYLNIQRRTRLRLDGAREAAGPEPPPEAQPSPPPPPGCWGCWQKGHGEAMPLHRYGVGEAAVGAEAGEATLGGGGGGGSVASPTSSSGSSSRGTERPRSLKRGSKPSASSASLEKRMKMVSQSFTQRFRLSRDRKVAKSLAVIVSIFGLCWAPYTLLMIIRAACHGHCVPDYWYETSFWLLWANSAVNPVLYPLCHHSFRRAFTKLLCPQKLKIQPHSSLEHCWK

inhibition [1] | Activity [2] | IC50 (Histamine H3 receptor) | Kb (Histamine H3 receptor) | SMILES | Activity (Rattus norvegicus)
inactive | inactive | 6.31 nM | 2 nM | N=C(NCCCCN1CCCCC1)SCCCN1CCCCC1 | 
inactive | inactive | 6.31 nM | 0.251 nM | Cl.N=C(NCCCCc1ccc(Cl)cc1)SCCCN1CCCCC1 | 101.2%
 |  | 1260 nM |  | CN1CCN(CCCSC(=N)NCc2ccc(Cl)cc2)CC1 | 
 |  |  |  | N=C(NCc1ccc(Cl)cc1)SCCCc1c[nH]cn1 [CLOBENPROPIT] | 145.6%
 |  | 316 nM |  | N=C(NCCc1ccc(Cl)cc1)SCCCN1CCOCC1 | 
inactive | inactive | 6.31 nM | 2 nM | Cl.N=C(NCCCc1ccc(Cl)cc1)SCCCN1CCCCC1 | 102.2%
 |  | 316 nM |  | O=C(CCCCc1ccc(Cl)cc1)NCCCN1CCCCC1 | 
 |  | 15.8 nM | 12.6 nM | N=C(NCCCCc1ccc(C(F)(F)F)cc1)SCCCN1CCCCC1 | 
 |  | 126 nM |  | O=C(CCCN1CCCCC1)NCCCCc1ccc(C(F)(F)F)cc1 | 
 |  | 6310 nM |  | N=C(NCc1ccc(Cl)cc1)SCCCN1CCNCC1 | 
 |  | 79.4 nM | 39.8 nM | Cl.N=C(NCc1ccc(Cl)cc1)SCCCN1CCCCC1 | 134.4%
 |  | 126 nM |  | O=C(CCCN1CCCCC1)NCCCCc1ccc(Cl)cc1 | 
 |  | 31.6 nM |  | N=C(NCCc1ccc(Cl)cc1)SCCCN1CCCC1 | 
 |  | 31.6 nM | 10 nM | Cl.N=C(NCCCCCc1ccccc1)SCCCN1CCCCC1 | 90.5%
inactive | inactive | 2 nM | 2 nM | N#Cc1ccc(CCCCNC(=N)SCCCN2CCCCC2)cc1 | 
 |  | 20 nM |  | N=C(NCc1ccc(Cl)cc1)SCCCN1CCCC1 | 
 |  | 1580 nM |  | N=C(NCc1ccc(Cl)cc1)SCCCN1CCOCC1 | 
inactive | inactive | 7.94 nM | 39.8 nM | Cl.N=C(NCCc1ccc(Cl)cc1)SCCCN1CCCCC1 | 145.8%
